Columns and labels:
SCLC strain SHP-77 = test: Colorimetric tetrazolium (MTT) assay for cell survival, SCLC strain SHP-77; type: cell-based, human
Method in brief: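 MTT assay: cells seeded overnight, treated in triplicate across a concentration range for 4 days at 37 °C, 5% CO2. On day 5, MTT was added for 4 h; formazan was dissolved in acidified isopropanol and absorbance read.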

[1] = biological target: T1, cloned human bradykinin B2 receptors (Homo sapiens, UniProt P30411); test: Anti-bradykinin activity on cloned human B2 receptors (CHO cells, Cytosensor microphysiometer); type: cell-based; conditions: higher numbers indicate higher potency
T1 sequence (P30411 1-391): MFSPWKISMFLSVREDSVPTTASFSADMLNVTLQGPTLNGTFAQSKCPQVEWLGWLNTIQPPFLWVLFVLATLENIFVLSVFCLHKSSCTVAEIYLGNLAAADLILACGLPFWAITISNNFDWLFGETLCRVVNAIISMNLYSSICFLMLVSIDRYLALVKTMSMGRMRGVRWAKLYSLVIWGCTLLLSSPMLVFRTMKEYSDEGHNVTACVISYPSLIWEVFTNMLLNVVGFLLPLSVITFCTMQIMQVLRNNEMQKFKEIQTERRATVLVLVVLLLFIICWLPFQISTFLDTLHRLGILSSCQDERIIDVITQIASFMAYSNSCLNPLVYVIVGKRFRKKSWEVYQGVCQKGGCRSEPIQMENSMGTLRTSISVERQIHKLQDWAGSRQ
Procedure: In general, Anti-bradykinin activity was determined by the classical guinea pig ileum assay and on Chinese hamster ovary (CHO) cells expressing cloned human bradykinin B2 receptors. Anti-tumor activity was determined on cultured human cancer cell lines using the standard tetrazolium (MTT) assay.
Chinese hamster ovary cells containing cloned and expressed human bradykinin B2 receptors were grown in cell cups of the Cytosensor microphysiometer in Ham's F-12 medium supplemented with sodium pyruvate and 10% FBS (Gibco 11765-054). For assay the cells were transferred to Ham's F-12 without bicarbonate or serum (Gibco 21700-075) and placed in the Cytosensor. Concentration-response curves were constructed to bradykinin in the presence or absence of new compounds.

[2] = test system: bradykinin response of isolated guinea pig ileum; test: Anti-bradykinin activity on isolated guinea pig ileum; conditions: higher numbers indicate higher potency
Method in brief: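 Terminal ileum segments (25 mm) from overnight-fasted male Hartley guinea pigs, in Krebs' solution gassed with 95% O2/5% CO2 under 1 g tension, equilibrated 1 h. Bradykinin concentration-effect curves constructed without and with test compounds.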

[3] = cloned human B2 receptors, pD2 for bradykinin is 11
[4] = isolated guinea pig ileum, pD2 of bradykinin is 7.4

Compound | MTT: ED50 for killing of SCLC strain SHP-77 in vitro (SCLC strain SHP-77; SCLC strain SHP-77 in vitro) [µM] | HUMAN: pA2 for bradykinin antagonist potency on cloned human B2 receptors [1, 3] | GPI: pA2 for bradykinin antagonist activity on isolated guinea pig ileum [2, 4] | MTT: ED50 for killing of SCLC strain SHP-77 in vitro (SCLC strain SHP-77; Table 1, SHP-77, MTT, 4 days) [µM] | HUMAN: pA2 for bradykinin antagonist potency on cloned human B2 receptors ([1]; Table 1) | GPI: pA2 for bradykinin antagonist activity on isolated guinea pig ileum ([2]; Table 1)
CN(C(=O)C=Cc1c(F)c(F)c(F)c(F)c1F)C(Cc1ccc(OCc2c(Cl)cccc2Cl)cc1)C(=O)NC1CC(C)(C)NC(C)(C)C1 (stereo not shown) [M594] | 3.7 | 8 | 5.0 |  |  | 
DDD-(pABz-2Nal-Arg)2 [M400] |  |  |  | 22 | 11.5 | 5.1
CC1(C)CC(NC(=O)[C@H](Cc2ccc3ccccc3c2)NC(=O)C=Cc2ccc(NC(=O)CCCCCCCCCCC(=O)Nc3ccc(C=CC(=O)N[C@@H](Cc4ccc5ccccc5c4)C(=O)NC4CC(C)(C)NC(C)(C)C4)cc3)cc2)CC(C)(C)N1 [M310] | 1.2 | Inact | 5.1 |  |  | 
CN1CCN(NC(=O)C(Cc2ccc3ccccc3c2)NC(=O)c2cccc(NC(=O)C=Cc3c(F)c(F)c(F)c(F)c3F)c2)CC1 (stereo not shown) [M492] | 45 | Inact | 5.1 |  |  | 
CC1(C)CC(NC(=O)C(NC(=O)C=Cc2ccc(NC(=O)CCCCCCCCC(=O)O)cc2)C2Cc3ccccc3C2)CC(C)(C)N1 (stereo not shown) [M586-B] | 40 | 12.3 |  |  |  | 
CC1(C)CC(NC(=O)C(NC(=O)C=Cc2ccc(NC(=O)CCCCCCCCCCC(=O)Nc3ccc(C=CC(=O)NC(C(=O)NC4CC(C)(C)NC(C)(C)C4)C4Cc5ccccc5C4)cc3)cc2)C2Cc3ccccc3C2)CC(C)(C)N1 (stereo not shown) [M294] | 1.8 | 10.3 | Inact |  |  | 
F5c-OC2Y-Arg [M512] |  |  |  | 70 | 11 | 5.7
CC1(C)CC(NC(=O)C(Cc2csc3ccccc23)NC(=O)C=Cc2cccs2)CC(C)(C)N1 (stereo not shown) [M476] | 15 | Inact | 4.6 |  |  | 
DDD-(DArg-OC2Y-Arg)2 [M518] |  |  |  | 15 | 10 | 
COC(=O)CCCCCCCCC(=O)Nc1ccc(C=CC(=O)NC(C(=O)NC2CC(C)(C)NC(C)(C)C2)C2Cc3ccccc3C2)cc1 (stereo not shown) [M586-A] | 15 | 12 | 5.3 |  |  | 
DDD-(DArg-2Nal-Arg-NH2)2 [M510] |  |  |  | 8 | 11 | Inact
DDD-(Lys-Pac-Gly-mABz-2Nal-NH2)2 [M494] |  |  |  | 33 | Inact | 5.1
CC1(C)CC(NC(=O)[C@H](CC(=O)O)NC(=O)[C@H](Cc2ccc3ccccc3c2)NC(=O)CCCCCCCCCCC(=O)N[C@@H](Cc2ccc3ccccc3c2)C(=O)N[C@@H](CC(=O)O)C(=O)NC2CC(C)(C)NC(C)(C)C2)CC(C)(C)N1 [M432] | 70 | 10 |  |  |  | 
CN(C)c1cccc2c(S(=O)(=O)NC(Cc3ccc(OCc4ccccc4)cc3)C(=O)NC3CC(C)(C)NC(C)(C)C3)cccc12 (stereo not shown) [M574] | 4.5 | Inact |  |  |  | 
O=C(C=Cc1cccnc1)Nc1ccc(C(=O)NC(Cc2ccc3ccccc3c2)C(=O)O)cc1 (stereo not shown) [M422] | 52 | Inact |  |  |  | 
DDD-(Arg-DIgl-Oic-Arg-OMe)2 [M598] |  |  |  | 13 | 10 | 
CC1(C)CC(NC(=O)C(Cc2ccc(OCc3c(Cl)cccc3Cl)cc2)NC(=O)C(C#N)=Cc2ccc(O)cc2)CC(C)(C)N1 (stereo not shown) [M602] | 12 | 10.8 |  |  |  | 
DDD-(Eac-Arg-DIgl-Oic-Arg-OMe)2 [M608] |  |  |  | 13 | Inact | 

Reference: US7071168B2, “Anti-cancer compounds and methods related thereto” (The Regents of the University of Colorado, priority 1998, dated 2006)
